Records with an inconclusive call do not appear.
Test system: CD8F1 mice, subcutaneous mammary adenocarcinoma, T/C%
Test: NCI In Vivo Anticancer Drug Screen. Data for tumor model Mammary Adenocarcinoma CD8F1 (subcutaneous) in CD8F1
Settings: higher = larger tumour
Outline: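 Ratio of treated to vehicle-control outcome, based on either survival or tumor size, in mice bearing transplantable tumors given the test compound.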

[1] = endpoint: median tumor weight (est.), dose: 12.5 mg/kg/injection, schedule: Q07DX005 (ip), vehicle: saline with Tween-80
[2] = endpoint: median tumor weight (est.), dose: 25.0 mg/kg/injection, schedule: Q07DX005 (ip), vehicle: saline with Tween-80
[3] = endpoint: median tumor weight (est.), dose: 50.0 mg/kg/injection, schedule: Q07DX005 (ip), vehicle: saline with Tween-80
[4] = endpoint: median tumor weight (est.), dose: 100.0 mg/kg/injection, schedule: Q07DX005 (ip), vehicle: saline with Tween-80
[5] = endpoint: median tumor weight (est.), dose: 200.0 mg/kg/injection, schedule: Q07DX005 (ip), vehicle: saline with Tween-80
[6] = endpoint: median tumor weight (est.), dose: 400.0 mg/kg/injection, schedule: Q07DX005 (ip), vehicle: saline with Tween-80

Compound: CC(=O)CC(C)=O.CC(=O)CC(C)=O.O=N[O-].O=N[O-].[Co]
- T/C (endpoint: median tumor weight change, dose: 62.5 mg/kg/injection, schedule: Q01DX001 (ip), vehicle: saline with Tween-80): 96 % of control
- T/C (endpoint: median tumor weight change, dose: 125.0 mg/kg/injection, schedule: Q01DX001 (ip), vehicle: saline with Tween-80): 38 % of control

Compound: Cn1c(=O)[nH]c2nncnc2c1=O
- T/C (endpoint: median tumor weight change, dose: 15.62 mg/kg/injection, schedule: Q01DX001 (ip), vehicle: other): 89 % of control
- T/C (endpoint: median tumor weight change, dose: 31.25 mg/kg/injection, schedule: Q01DX001 (ip), vehicle: other): 88 % of control
- T/C (endpoint: median tumor weight change, dose: 62.5 mg/kg/injection, schedule: Q01DX001 (ip), vehicle: other): 57 % of control

Compound: COC1=C(OC)C(=O)C(SC/C=C(\C)CCCC(C)CCCC(C)CCCC(C)C)=CC1=O (configuration not stated)
- T/C [1]: 164 % of control
- T/C [2]: 110 % of control
- T/C [3]: 32 % of control
- T/C [4]: 68 % of control
- T/C [5]: 85 % of control
- T/C [6]: 52 % of control

Compound: COc1cccc2c1C(=O)c1c(O)c3c(c(O)c1C2=O)C[C@@](O)(C(=O)CO)C[C@@H]3OC1CC(N)CC(C)O1 (some centres not stated)
- T/C (endpoint: median tumor weight change, dose: 1.8 mg/kg/injection, schedule: Q01DX001 (ip), vehicle: water): 187 % of control
- T/C (endpoint: median tumor weight change, dose: 3.75 mg/kg/injection, schedule: Q01DX001 (ip), vehicle: water): 94 % of control

Compound: C/C=C\C(C)=C/C(C)C(=O)CC(O)CC1CC(=O)NC(=O)C1 (configuration not stated)
- T/C (endpoint: median tumor weight change, dose: 50.0 mg/kg/injection, schedule: Q01DX001 (ip), vehicle: saline with Tween-80): 66 % of control
- T/C (endpoint: median tumor weight change, dose: 56.0 mg/kg/injection, schedule: Q01DX001 (ip), vehicle: DMSO): 58 % of control
- T/C (endpoint: median tumor weight change, dose: 100.0 mg/kg/injection, schedule: Q01DX001 (ip), vehicle: saline with Tween-80): 66 % of control
- T/C (endpoint: median tumor weight change, dose: 112.0 mg/kg/injection, schedule: Q01DX001 (ip), vehicle: DMSO): 60 % of control
- T/C (endpoint: median tumor weight change, dose: 200.0 mg/kg/injection, schedule: Q01DX001 (ip), vehicle: saline with Tween-80): 73 % of control
- T/C (endpoint: median tumor weight change, dose: 225.0 mg/kg/injection, schedule: Q01DX001 (ip), vehicle: DMSO): 77 % of control
- T/C (endpoint: median tumor weight change, dose: 400.0 mg/kg/injection, schedule: Q01DX001 (ip), vehicle: saline with Tween-80): 98 % of control

Compound: Cc1ccc(NC(=O)Oc2ccc(Br)cc2Br)c([N+](=O)[O-])c1
- T/C [1]: 121 % of control
- T/C [2]: 93 % of control
- T/C [3]: 115 % of control
- T/C [4]: 77 % of control
- T/C [5]: 124 % of control
- T/C [6]: 98 % of control
- T/C (endpoint: median tumor weight change, dose: 250.0 mg/kg/injection, schedule: Q01DX001 (ip), vehicle: saline with Tween-80): 52 % of control
- T/C (endpoint: median tumor weight change, dose: 500.0 mg/kg/injection, schedule: Q01DX001 (ip), vehicle: saline with Tween-80): 88 % of control
- T/C (endpoint: median tumor weight change, dose: 1000.0 mg/kg/injection, schedule: Q01DX001 (ip), vehicle: saline with Tween-80): 50 % of control
- T/C (endpoint: median tumor weight change, dose: 1800.0 mg/kg/injection, schedule: Q01DX001 (ip), vehicle: saline with Tween-80): 74 % of control
- T/C (endpoint: median tumor weight change, dose: 2000.0 mg/kg/injection, schedule: Q01DX001 (ip), vehicle: saline with Tween-80): 59 % of control
- T/C (endpoint: median tumor weight change, dose: 3600.0 mg/kg/injection, schedule: Q01DX001 (ip), vehicle: saline with Tween-80): 44 % of control

Compound: O=C(O)C1CC(c2ccccc2)=NN1c1ccccc1 (configuration not stated)
- T/C (endpoint: median tumor weight (est.), dose: 12.5 mg/kg/injection, schedule: Q07DX005 (ip), vehicle: water): 101 % of control
- T/C (endpoint: median tumor weight (est.), dose: 25.0 mg/kg/injection, schedule: Q07DX005 (ip), vehicle: water): 83 % of control
- T/C (endpoint: median tumor weight (est.), dose: 50.0 mg/kg/injection, schedule: Q07DX005 (ip), vehicle: water): 83 % of control
- T/C (endpoint: median tumor weight (est.), dose: 100.0 mg/kg/injection, schedule: Q07DX005 (ip), vehicle: water): 78 % of control
- T/C (endpoint: median tumor weight (est.), dose: 200.0 mg/kg/injection, schedule: Q07DX005 (ip), vehicle: water): 70 % of control

Source: PubChem BioAssay AID220 (DTP/NCI, 2004)
